This is an account of results in patent US9833466B2, “Treatment of leukemia with histone deacetylase inhibitors” (Acetylon Pharmaceuticals Inc., priority 2014, dated 2017).

pIC50: −log10 of the molar value.

The test system of one data set is AML1/ETO fusion protein. Briefly: AML1/ETO fusion protein Western blot in Kasumi-1 cells. In kind it is cell-based. The note with it: 24 hours. As for the experimental part: One type of AML has a signature chromosome translocation t(8:21) and therefore expression of a unique fusion protein AML1/ETO. […] In this study, Kasumi-1 cells were exposed to different concentrations of the HDAC inhibitor Compound A, or another HDAC1/2/6 selective inhibitor Compound G (data not shown), for 24 hours. The whole cell lysates were separated by SDS-PAGE (SDS-polyacrylamide gel electrophoresis) and transferred to a membrane (Western blot). The AML1/ETO fusion protein was detected on the membrane using an AML1 specific antibody.

The subject of another data set is NB4. Briefly: Surface CD11b by FACS in NB4. The note with it: combination with azacitidine vs single agent, 72 hours. In kind it is cell-based. As to the method:
Briefly, the AML cell lines HL-60 (FIGS. 4A and 4D), Kasumi-1 (FIGS. 4B and 4E) and NB4 (FIGS. 4C and 4F) were treated with the indicated concentrations of compounds. In FIGS. 4A-C, surface levels of myeloid differentiation marker CD11b were determined by FACS at 72 hours post-treatment. […] In FIGS. 4D-F, apoptosis was assessed by flow cytometry by measuring Annexin V binding and cellular permeability to propidium iodide at 96 hours post-treatment. The relative fraction of cells that were alive, in early apoptosis, in late apoptosis, or dead was then determined.
FIGS. 7A-F show the combination of HDAC inhibitors and azacitidine in the NB4 cell line. Briefly, cells were treated with DMSO, Compound B, Compound A, or Compound E as single agent or in combination with azacitidine at the indicated concentrations. Surface levels of CD11b were determined 72 hours post-treatment (FIGS. 7A, 7C, 7E), and apoptosis was assessed 96 hours post-treatment (FIGS. 7B, 7D, 7F).

For data set [1] the following is noted: Phase I trials; cited from earlier work.
For data set [2], the system named is AML cell lines (Kasumi-3, HL-60, and THP-1). In words: AML cell viability assay (Cell Titer Glo), HDAC inhibitor combined with azacitidine. Format: cell-based. Conditions: combination with azacitidine; 72 hours; synergistic only when CI<0.7. As for the experimental part: With the same amount of cultured AML cells in each well, serial dilutions of one compound were added into each row of the wells from left to right, and serial dilutions of the second compound were mixed into each column of these wells from top to bottom. Therefore, those AML cells on the testing plate were exposed to various combinations of the two compounds at different concentrations. The viable cells in each well were measured after 72 hours incubation at 37° C., and the percentage of unviable cells was calculated and normalized to the total cells. […] The CI values were plotted as a function of Fa, as shown in FIGS. 1A-D. In order to avoid any possible false positives due to experimental data variability, a combination was determined “synergistic” only when CI<0.7, as shown in the shaded area of each graph. […] The synergism is driven predominantly by HDAC1/2 inhibition.

For data set [3], the system named is HL-60, NB4, MV4-11, Kasumi-1, THP-1, and MOLM-13. In words: Single agent activity on viability in AML cell lines. The note with it: 72 hours, six AML cell lines. In kind it is cell-based. As for the experimental part:
FIGS. 3A-D show the single agent activity on viability in AML cell lines. Briefly, each of the following cell lines: HL-60, THP-1, MV-4-11, Kasumi-1, NB4, and MOLM-13 were exposed to increasing concentrations of either Compound B (FIG. 3A), Compound A (FIG. 3B), Compound E (FIG. 3C), or azacitidine (FIG. 3D) to determine their response to drug treatment. […] The panel of cell lines was also treated with azacitidine to measure their sensitivity.
FIGS. 8A-F show the single agent activity on viability in AML cell lines. […] Viability was calculated as a percentage of control (DMSO treated cells). Growth inhibition curves were generated using GraphPad Prism 6.
FIG. 17. […] (B-D) MV4-11 cells were treated with indicated concentrations of compounds. (B) Surface levels of myeloid differentiation marker CD11b were determined by FACS at 72 h post-treatment. […] (C) Cell cycle was assessed by flow cytometry after incorporation of EdU and staining with Far Red at 72 h post-treatment. The distribution of cells among G0/G1 phase, G2/M phase, S phase and subG1 phase was determined. […] (D) Apoptosis was assessed by flow cytometry via measuring Annexin V binding and cellular permeability to propidium iodide at 96 h post-treatment. The relative fraction of cells that were live, in early apoptosis, in late apoptosis or dead was then determined.

The next data set concerns MV4-11. In words: Cell cycle by flow cytometry (EdU, Far Red) in MV4-11. Conditions: single agent, 72 h. Format: cell-based. As to the method: The distribution of cells among G0/G1 phase, G2/M phase, S phase and subG1 phase was determined. […] The relative fraction of cells that were live, in early apoptosis, in late apoptosis, or dead was then determined.
FIG. 17. […] (A) Indicated AML cell lines were exposed to increasing concentrations of Compound J to confirm their sensitivity to HDAC1/2 inhibition. (B-D) MV4-11 cells were treated with indicated concentrations of compounds. (B) Surface levels of myeloid differentiation marker CD11b were determined by FACS at 72 h post-treatment. […] (C) Cell cycle was assessed by flow cytometry after incorporation of EdU and staining with Far Red at 72 h post-treatment. The distribution of cells among G0/G1 phase, G2/M phase, S phase and subG1 phase was determined. […] (D) Apoptosis was assessed by flow cytometry via measuring Annexin V binding and cellular permeability to propidium iodide at 96 h post-treatment. The relative fraction of cells that were live, in early apoptosis, in late apoptosis or dead was then determined.

Data set [4] has as its system bone marrow samples derived from AML patients. In words: Primary AML sample colony formation assay. In kind it is cell-based. Conditions: Homo sapiens, 336 h, read-out: median IC50, colony formation. As to the method:
(A) 6 bone marrow samples derived from AML patients were cultured in methylcellulose-based medium and treated with increasing concentrations of Compound A, Compound J and azacitidine for 14 days when the colonies reach reasonable size. IC50 values for each drug are plotted. […] IC50 values were plotted for each patient sample.

The test system of a further data set is Kasumi-1. Briefly: Kasumi-1 cell cycle by propidium iodide staining (sub-G1). Format: cell-based. The note with it: 72 hours, increasing concentrations. As for the experimental part:
HDAC inhibition causing AML cell death (apoptosis) was measured by staining the AML cells with propidium iodide after the cells were exposed to different concentrations of the HDAC inhibitors. Four distinct cell populations, G1, S, G2, and sub-G1, were separated and quantified based on their propidium iodide staining patterns. The sub-G1 cells are those dying or dead cells, and the percentage of this population was a reflection of the tested compound cytotoxicity.

For the compound `O=C(CCCCCCNC(=O)c1cnc(N(c2ccccc2)c2ccccc2)nc1)NO` [Compound A, 2-(diphenylamino)-N-(7-(hydroxyamino)-7-oxoheptyl)pyrimidine-5-carboxamide], the “amount of AML1/ETO fusion protein” value in the data set with AML1/ETO fusion protein is listed as “decrease the amount of this fusion protein in a concentration dependent manner”. Moreover, the CD11b positive cells result with NB4 is on record as “synergistic increases of CD11b positive cells”. For the same compound, in data set [1], the safety and tolerability result is “improved safety and tolerability profile”. Further, the “synergy of cytotoxicity with azacitidine (CI vs Fa)” value in data set [2] is reported as “significant synergistic cell killing”. Moreover, the “viability IC50 relative to HDAC selective range” value in data set [3] is “has some inhibitory effects on HDAC1/2 at their IC50 values”. Also, in the data set with MV4-11, the cell cycle arrest result is listed as “induced cell cycle arrest as well as apoptosis”. Also, in data set [4], the negative logarithm of the IC50 (pIC50) was 5.01.

For the compound `O=C(CCCCCCNC(=O)c1cnc(N(c2ccccc2)c2ccccc2Cl)nc1)NO` [Compound B, 2-((2-chlorophenyl)(phenyl)amino)-N-(7-(hydroxyamino)-7-oxoheptyl)pyrimidine-5-carboxamide], the CD11b positive cells result with NB4 is listed as “synergistic increases of CD11b positive cells”. For the same compound, the “sub-G1 cells (dying or dead cells)” value with Kasumi-1 is reported as “Increased amount of sub-G1 cells”.

In the case of `Nc1ccc(-c2cccs2)cc1NC(=O)c1ccc2c(c1)cc(C1CC1)n2CCN1CCOCC1` [Compound E, N-(2-amino-5-(thiophen-2-yl)phenyl)-2-cyclopropyl-1-(2-morpholinoethyl)-1H-indole-5-carboxamide], in the data set on Kasumi-1, the “sub-G1 cells (dying or dead cells)” value is reported as “Increased amount of sub-G1 cells”. Also, the “synergy of cytotoxicity with azacitidine (CI vs Fa)” value in data set [2] is “the most synergy”. Further, in data set [3], the “viability IC50 relative to HDAC selective range” value is on record as “within its HDAC1/2 selective range”. Besides, the cell cycle arrest result with MV4-11 is recorded as “induced cell cycle arrest as well as apoptosis”.
